This note sets out measurements from ChEMBL document CHEMBL1148343, “Fragment-based drug discovery” (J Med Chem, 2004).

The test system of one assay is Nucleic Acid. As to the kind of experiment: (§1) Maximal non-effective concentration against bacterial DNA gyrase. In kind it is nucleic-acid assay.
The target in assay [1] is DNA topoisomerase 2-beta (Homo sapiens) (UniProt Q02880). The assay is described as §1.
Assay [2] deals with Matrix metalloproteinase-9 (Homo sapiens) (UniProt P14780). As to the kind of experiment: Inhibition of gelatinase B, matrix metalloprotease-9 (MMP-9) at 5000 uM.

Structures are written as SMILES.

DNA topoisomerase 2-beta (Homo sapiens), sequence (Q02880 whole entry): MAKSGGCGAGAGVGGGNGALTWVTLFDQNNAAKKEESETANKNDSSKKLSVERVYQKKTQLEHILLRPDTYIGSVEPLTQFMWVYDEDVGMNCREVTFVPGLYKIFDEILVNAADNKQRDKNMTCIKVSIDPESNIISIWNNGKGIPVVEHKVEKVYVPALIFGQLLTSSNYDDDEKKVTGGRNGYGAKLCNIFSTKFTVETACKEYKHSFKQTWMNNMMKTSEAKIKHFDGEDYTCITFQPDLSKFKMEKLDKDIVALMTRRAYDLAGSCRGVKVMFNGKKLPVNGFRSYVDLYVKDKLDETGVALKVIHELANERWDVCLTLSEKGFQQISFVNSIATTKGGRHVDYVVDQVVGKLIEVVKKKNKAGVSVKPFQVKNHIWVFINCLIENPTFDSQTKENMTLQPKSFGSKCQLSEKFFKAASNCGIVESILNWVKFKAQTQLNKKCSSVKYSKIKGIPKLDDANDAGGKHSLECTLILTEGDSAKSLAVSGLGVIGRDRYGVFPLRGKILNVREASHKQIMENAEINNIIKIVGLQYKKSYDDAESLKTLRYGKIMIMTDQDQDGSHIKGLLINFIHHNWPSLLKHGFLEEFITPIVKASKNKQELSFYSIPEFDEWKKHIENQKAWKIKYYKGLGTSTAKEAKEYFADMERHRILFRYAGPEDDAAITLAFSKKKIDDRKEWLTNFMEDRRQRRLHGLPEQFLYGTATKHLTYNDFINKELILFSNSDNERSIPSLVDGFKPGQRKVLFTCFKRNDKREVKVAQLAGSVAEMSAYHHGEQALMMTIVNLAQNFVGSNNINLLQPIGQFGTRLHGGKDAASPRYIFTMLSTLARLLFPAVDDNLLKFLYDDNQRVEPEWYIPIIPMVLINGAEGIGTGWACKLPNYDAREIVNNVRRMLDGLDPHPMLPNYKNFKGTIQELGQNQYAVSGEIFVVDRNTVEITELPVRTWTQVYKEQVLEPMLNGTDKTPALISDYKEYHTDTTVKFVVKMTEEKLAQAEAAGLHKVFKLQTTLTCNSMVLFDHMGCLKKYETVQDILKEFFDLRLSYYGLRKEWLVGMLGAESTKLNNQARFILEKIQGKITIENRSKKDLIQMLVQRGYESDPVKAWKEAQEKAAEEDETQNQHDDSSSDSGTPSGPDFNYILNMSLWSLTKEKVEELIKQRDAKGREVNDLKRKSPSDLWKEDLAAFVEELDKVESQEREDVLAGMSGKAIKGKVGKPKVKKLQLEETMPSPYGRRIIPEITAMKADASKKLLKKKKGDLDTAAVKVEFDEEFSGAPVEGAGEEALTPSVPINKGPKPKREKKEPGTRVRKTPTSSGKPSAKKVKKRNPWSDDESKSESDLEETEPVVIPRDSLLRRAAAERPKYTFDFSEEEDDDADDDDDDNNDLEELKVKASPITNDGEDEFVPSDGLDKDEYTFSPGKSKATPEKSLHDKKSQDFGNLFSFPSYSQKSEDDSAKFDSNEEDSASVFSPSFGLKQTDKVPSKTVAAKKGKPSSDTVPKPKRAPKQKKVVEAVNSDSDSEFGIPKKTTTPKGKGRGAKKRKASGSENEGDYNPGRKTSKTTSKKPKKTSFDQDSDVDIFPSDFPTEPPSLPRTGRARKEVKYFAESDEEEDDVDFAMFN
Matrix metalloproteinase-9 (Homo sapiens), sequence (P14780 whole entry): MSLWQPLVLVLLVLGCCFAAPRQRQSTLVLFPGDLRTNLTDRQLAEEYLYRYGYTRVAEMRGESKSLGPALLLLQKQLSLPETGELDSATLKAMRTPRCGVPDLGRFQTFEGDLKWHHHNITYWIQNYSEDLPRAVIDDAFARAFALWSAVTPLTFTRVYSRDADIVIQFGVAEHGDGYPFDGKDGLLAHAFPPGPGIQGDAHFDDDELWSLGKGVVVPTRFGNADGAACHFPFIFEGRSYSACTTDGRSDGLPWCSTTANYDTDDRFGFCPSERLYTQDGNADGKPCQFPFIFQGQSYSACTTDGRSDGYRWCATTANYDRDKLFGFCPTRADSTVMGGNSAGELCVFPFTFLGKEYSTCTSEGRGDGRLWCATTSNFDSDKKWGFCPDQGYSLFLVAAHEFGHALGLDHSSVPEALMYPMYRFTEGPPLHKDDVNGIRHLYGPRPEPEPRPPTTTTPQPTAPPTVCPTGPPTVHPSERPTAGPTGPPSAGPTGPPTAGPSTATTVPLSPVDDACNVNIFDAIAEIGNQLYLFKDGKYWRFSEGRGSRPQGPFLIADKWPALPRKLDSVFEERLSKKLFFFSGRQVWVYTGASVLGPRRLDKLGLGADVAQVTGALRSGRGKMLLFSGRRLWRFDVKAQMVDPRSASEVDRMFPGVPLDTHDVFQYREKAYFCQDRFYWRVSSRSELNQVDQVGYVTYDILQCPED

The molecule `c1ccc(-c2[nH]nc3ccccc23)cc1` gave an MNEC with Nucleic Acid of 41 µM.
As for `Cc1cc(=O)oc2cc(SCc3n[nH]c4ccccc34)ccc12`, the MNEC with Nucleic Acid turned out to be 25 µM.
`Cc1cc(=O)oc2cc(SCc3n[nH]c4cccc(OCc5ccc(C(C)(C)C)cc5)c34)ccc12` yielded an MNEC in assay [1] of 0.062 µM.
As to `NCc1nc2ccccc2[nH]1`, the inhibition – broadly, the percentage by which the read-out fell short of the control – in assay [2] is 65%.
